Data from PMC13046583, “SRS143 a semi-synthetic analogue of andrographolide against house dust mite induced allergic asthma” (Naunyn-Schmiedeberg's Archives of Pharmacology, 2025).
Entries after “also recorded” stand apart in the source; their conditions may differ.

Key:
[1] = Cell viability (MTT) assay; format: cell-based; settings: rat, RBL-2H3 cells, 1 h treatment, washed, viability measured at 24 h
Description: (§1) RBL-2H3 cells were maintained in Minimum Essential Media (MEM, ThermoFischer, Grand Island, NY), supplemented with 15% heat-inactivated FBS, 100 U/mL of penicillin and 100 µg/mL of streptomycin. The cytotoxicity effect of the SRS143 was carried out using the rapid colorimetric assay that measures the activity of mitochondrial dehydrogenase in living cells, which convert the pale yellow soluble tetrazolium salt MTT into a insoluble purple end product formazan.
(§2) The inhibitory activity of SRS143 and quercetin against the release of β-hexosaminidase from RBL-2H3 cells was evaluated according to the method reported previously (Lin et al. [2020]). Briefly, the cells were cultured in a 24-well cell culture plate (9 × 10^5/well, Becton–Dickinson Co., Franklin Lakes, NJ) with concentration ([…]) of mouse monoclonal anti-dinitrophenyl (DNP) IgE. After washing with PBS, SRS143 at various concentrations (0, 0.1, 1 and 10 μM)) or quercetin (30 μM) was added. After 60 min of incubation, DNP-labeled bovine serum albumin (DNP-labeled BSA, 50 ng/ml final concentration) was added, followed by 45 min of incubation. The supernatant (50 μl) was mixed with 100 μl of a 0.1 M citrate buffer (pH 4.5) containing 1 mM […] and the mixture was incubated in a 96-well plate at 37 °C for 60 min. For the calcium ionophore stimulation method, CaI A23187 was added at 5 µM to induce degranulation. Each well was replaced with 0.4 mL of MEM media and 100 µL of MTT solution to evaluate cell viability using MTT assay. Supernatants from CaI A23187-induced degranulated cells were collected, centrifuged, and reacted with PNAG in citrate buffer at 37℃ for 1 h. The reaction was stopped, and absorbance at 405 nm was measured using a microplate reader (Versamax).to assess beta-hexosaminidase activity, indicating enzyme subproduct levels. The results are expressed as percentage release of β-hexosaminidase activity amount by antigen (DNP-labeled BSA) alone.
(§3) Mast cell degranulation is the key process in allergic asthma. To induce mast cell degranulation process in RBL-2H3 cells, the cells were sensitized and challenged with DNP-labelled specific antigen IgE. Alternatively, the mast cells were induced with calcium ionophore A23187 to trigger direct degranulation independent of activation of IgE. The release was assessed with β-hexosaminidase assay whereby the amount β-hexosaminidase enzyme released correlates to histamine release by RBL-2H3 cells. In the preliminary screening, single low dose of 10 µM of AGP and its derivatives were applied to the calcium ionophore activated cells for a short duration of 1 h. Quercetin as positive control was also applied at a higher dose of 50 µM. For cell viability assay, the cells were washed and replenished with fresh medium supplemented with 15% FBS after 1 h of treatment. The cell viability was measured at 24 h. […] Given close to eightfold improved potency in inhibition of mast degranulation (Fig. 4A, B and C). We further measured the efficacy of SRS143 in a dose response study involving both efficacy and toxicity.

[2] = system: RBL-2H3 cells; assay: β-hexosaminidase release assay, calcium ionophore A23187 stimulation; format: cell-based
Description: as §2, §3

[3] = system: HDM-induced asthmatic BALB/c mice; assay: House dust mite allergic asthma mouse model, BAL fluid total and differential cell counts; format: in vivo; settings: day 7-11, n = 6; for BAL fluid airway infiltration of all inflammatory leukocytes: 1 mg/kg i.p., positive control
Description: (§4) BALB/c mice of 6–8 weeks of age were housed in the animal experimentation unit, Faculty of Medicine and Health Sciences, Universiti Putra Malaysia (UPM). Mice were kept in individually vented cages (1820 cm^3, not more than 6 mice per cage) with a bed of poplar shaving and free access to clean water and food. Mice were grouped into 8 groups of 6 mice per group – Group 1: Normal control, Group 2: HDM, Group 3: Vehicle (6% DMSO), Group 4: SRS143 (0.3 mg/kg), Group 5: SRS143 (1 mg/kg), Group 6: SRS143 (3 mg/kg), Group 7: dexamethasone (1 mg/kg), Group 8: andrographolide (1 mg/kg). Throughout the study, both experimental and control mice were kept under appropriate conditions (22 ± 2 °C temperature, and 55 ± 10% relative humidity). The mice were maintained under a 12-h light-darkness cycle.
Allergic asthma was induced using house dust mite (Dermatophagoides pteronyssinus, Lot Number: 253983, Greer Laboratories, Lenoir, USA). The HDM was dissolved and prepared to a concentration of 5000 µg/mL in PBS, and then it was aliquoted and frozen (−20 °C) for further use. A 14-day HDM model was used to induce asthma in Balb/c mice (Lim et al. [2016]). The animals were sub-anesthetized using a cocktail of ketamine (50 mg/kg) and xylazine (3.3 mg/kg) for the intranasal HDM sensitization and challenged protocol. Briefly, the induction involved initial intranasal administration of 100 μg HDM extract (10 μL per nostril) on day 0, and subsequent administration of 10 μg of HDM (10 μL per nostril) on day 7—11. Mice were treated with SRS143 at doses of 0.3, 1, or 3 mg/kg, or with dexamethasone (1 mg/kg) or andrographolide (1 mg/kg). All treatments were administered at a constant volume of 10 mL/kg. Bronchoalveolar lavage (BAL) fluid collection was conducted on day 14.
Fig. 3 HDM-asthma induction protocol. Animals were intranasally (i.n.) sensitized using 100 μg of house dust mite (HDM) on day 0, this was followed by daily HDM intranasal challenge (10 μg) on day 7 −11. […]
BAL fluid total and differential cell counts were determined as described (Matsuda et al. [1994]).

[4] = system: RBL-2H3 cells; assay: Cell viability (MTT) assay; format: cell-based
Description: as §1, §2, §3

[5] = system: HDM-induced asthmatic BALB/c mice; assay: House dust mite allergic asthma mouse model, airway hyperresponsiveness to methacholine; format: in vivo; settings: methacholine 2-32 mg/ml, n = 6
Description: as §4
Allergic asthma was induced using house dust mite (Dermatophagoides pteronyssinus, Lot Number: 253983, Greer Laboratories, Lenoir, USA). The HDM was dissolved and prepared to a concentration of 5000 µg/mL in PBS, and then it was aliquoted and frozen (−20 °C) for further use. A 14-day HDM model was used to induce asthma in Balb/c mice (Lim et al. [2016]). The animals were sub-anesthetized using a cocktail of ketamine (50 mg/kg) and xylazine (3.3 mg/kg) for the intranasal HDM sensitization and challenged protocol. […]

[6] = system: Akt phosphorylation; assay: Immunoblotting of Akt phosphorylation in IgE-FcεRI activated mast cells; format: cell-based; settings: IgE-FcεRI activated RBL-2H3 cells, 0.1, 1 and 10 µM, n = 3
Description: Nuclear proteins of RBL-2H3 cells (10 µg per lane) were separated by 10% SDS-PAGE and immunoblots were developed as described (Matsuda et al. [1994]). Immunoblots were probed with anti-AKT and anti-β-actin antibodies (all from Cell Signalling Technology, Beverly, MA).

[7] = system: RBL-2H3 cells; assay: β-hexosaminidase release assay, IgE-FcεRI (DNP-IgE/DNP-BSA) stimulation; format: cell-based
Description: The inhibitory activity of SRS143 and quercetin against the release of β-hexosaminidase from RBL-2H3 cells was evaluated according to the method reported previously (Lin et al. [2020]). Briefly, the cells were cultured in a 24-well cell culture plate (9 × 10^5/well, Becton–Dickinson Co., Franklin Lakes, NJ) with concentration ([…]) of mouse monoclonal anti-dinitrophenyl (DNP) IgE. After washing with PBS, SRS143 at various concentrations (0, 0.1, 1 and 10 μM)) or quercetin (30 μM) was added. After 60 min of incubation, DNP-labeled bovine serum albumin (DNP-labeled BSA, 50 ng/ml final concentration) was added, followed by 45 min of incubation. […] The reaction was stopped, and absorbance at 405 nm was measured using a microplate reader (Versamax).to assess beta-hexosaminidase activity, indicating enzyme subproduct levels. The results are expressed as percentage release of β-hexosaminidase activity amount by antigen (DNP-labeled BSA) alone.
Mast cell degranulation is the key process in allergic asthma. […] The release was assessed with β-hexosaminidase assay whereby the amount β-hexosaminidase enzyme released correlates to histamine release by RBL-2H3 cells. […] The cell viability was measured at 24 h. […] We further measured the efficacy of SRS143 in a dose response study involving both efficacy and toxicity.

[8] = system: HDM-induced asthmatic BALB/c mice; assay: House dust mite allergic asthma mouse model, lung histology (H&E, PAS); format: in vivo
Description: as §4
Allergic asthma was induced using house dust mite (Dermatophagoides pteronyssinus, Lot Number: 253983, Greer Laboratories, Lenoir, USA). The HDM was dissolved and prepared to a concentration of 5000 µg/mL in PBS, and then it was aliquoted and frozen (−20 °C) for further use. […]
Isolated lungs were fixed in 10% neutral formalin and processed. […] (5 µm) were stained with H&E for inflammatory cell infiltration and Periodic Acid Schiff […] stain (PAS) for mucus production. Quantitative analysis under a light microscope was then performed. […]

[9] = Rattus norvegicus, 10 µM, 1 h, calcium ionophore A23187 activated RBL-2H3 cells, read-out: Inhibition of β-Hexosaminidase Enzyme Release (%)

`O=c1c(O)c(-c2ccc(O)c(O)c2)oc2cc(O)cc(O)c12` [Quercetin, quercetin, reference compound] gave a viability at 1 h, 50 µM ([1]; 50 µM) of 106% and an inhibition at 50 µM ([2]; Rattus norvegicus, 50 µM, 1 h, calcium ionophore A23187 activated RBL-2H3 cells, read-out: Inhibition of β-Hexosaminidase Enzyme Release (%)) of 78.8 ± 8.5%.

With `C[C@@H]1C[C@H]2[C@@H]3CCC4=CC(=O)C=C[C@]4(C)[C@@]3(F)[C@@H](O)C[C@]2(C)[C@@]1(O)C(=O)CO` [Dexamethasone, dexamethasone, reference compound] the “BAL fluid airway infiltration of all inflammatory leukocytes” value [3] was “showed inhibition”.

With `C=C1CCC2C(C)(CO)C(O)CCC2(C)C1C=CC1=CCOC1=O` (centres unmarked) [DDAG, 14-deoxy-11,12-didehydroandrographolide] the “Viability of RBL-2H3 Cells (%)” value ([4]; 10 µM, 1 h treatment, washed, viability measured at 24 h) was 99.6%.

For `C=C1CCC2C3(C)COC(c4ccccc4)OC3CCC2(C)C1C/C=C1/C(=O)OCC1OC(C)=O` (centres unmarked) [SRS143, 3,19-Benzylidene-14-acetylandrographolide], the viability at 1 h, 10 µM [1] was 107%, the “Cytotoxicity on RBL-2H3 cells” value ([4]; 1 h, 24 h, and 24 h after washing at 1 h) was “only toxic if applied at the highest concentration of 100 µM” and the “Airway resistance (RI) in response to methacholine” value ([5]; 1 and 3 mg/kg i.p.) was “remarkable decrease”. The “Dynamic compliance (Cdyn) in response to methacholine” value ([5]; SRS143 i.p.) was “no significant changes”, the “Improved potency in inhibition of mast degranulation” value ([2]; 10 µM screening, the comparator is not given, presumably AGP) was “eightfold” and the inhibition at 30 µM ([2]; Rattus norvegicus, RBL-2H3, 30 µM, 1 h, dose-response study (Fig. 4B), read-out: Inhibition of enzyme release) was ~97%. For the same molecule, the IC50 ([2]; Rattus norvegicus, RBL-2H3, calcium ionophore A23187 stimulation, 1 h (Fig. 4B), read-out: IC50, inhibition of β-hexosaminidase release) was 6.5 µM, the inhibition at 10 µM [2, 9] was 85.2 ± 3.1% and the “Levels of phosphorylated-Akt” value [6] was “decrease significantly at the highest dose of 10 μM”. The “BAL fluid total cells, macrophage, neutrophil, eosinophil and lymphocyte infiltration” value ([3]; 0.3, 1, 3 mg/kg i.p. 2 h before HDM challenge, vs HDM group) was “significant reduction; also recorded: dose-dependently reduced”, the IC50 ([7]; Rattus norvegicus, RBL-2H3, IgE-FceRI stimulation, 1 h (Fig. 4C), 50% mark on concentration axis, read-out: IC50, inhibition of β-hexosaminidase release) was 6.5 µM and the “Peribronchial and perivascular inflammatory cellular infiltration in lung sections (H&E)” value ([8]; 0.3, 1, 3 mg/kg i.p., day 7-11) was “dose-dependently decreased”. The “PAS-positive cells score (mucus, goblet metaplasia)” value ([8]; SRS143 i.p., HDM sensitized and challenged mice) was “between mild to no observable goblet metaplasia”.

With `C=C1CC[C@@H]2[C@](C)(CO)[C@H](O)CC[C@@]2(C)[C@@H]1C/C=C1/C(=O)OC[C@H]1O` [AGP, andrographolide] the viability at 1 h, 10 µM [1] was 81.3%, the “Inhibition of β-Hexosaminidase Enzyme Release (%)” value ([2]; 10 µM, 1 h, calcium ionophore A23187 activated RBL-2H3 cells) was “low percentage inhibition level” and the inhibition at 10 µM [2, 9] was 11.1 ± 5.7%. The “In vitro antihistamine activity” value ([2]; calcium ionophore activated RBL-2h3 cells) was “did not show any in vitro antihistamine activity”, the “BAL fluid airway infiltration of all inflammatory leukocytes” value [3] was “showed inhibition” and the “In vitro antihistamine activity” value ([7]; DNP-IgE activated RBL-2h3 cells) was “did not show any in vitro antihistamine activity”.
